Experimental data from patent publication US20250002471A1 (Gilead Sciences, Inc., priority 2020, published 2025).

Experiments:
[1] = target: T1, TLR9 (Homo sapiens, UniProt Q9NR96); assay: Human PBMC cell-based assay, TLR9 agonist ODN-2216 stimulation, cytokine (IL-6 and IFNα) readout; conditions: human PBMCs, ODN-2216 3 μM, 6 hours; Table 26; read-out: TLR-9 EC50
T1 construct: lymphocytes, monocytes and dendritic cells that express TLR7, TLR8 and TLR9; endogenous in cells; host or cells: human PBMCs from healthy donors
T1 sequence (Q9NR96 26-1032): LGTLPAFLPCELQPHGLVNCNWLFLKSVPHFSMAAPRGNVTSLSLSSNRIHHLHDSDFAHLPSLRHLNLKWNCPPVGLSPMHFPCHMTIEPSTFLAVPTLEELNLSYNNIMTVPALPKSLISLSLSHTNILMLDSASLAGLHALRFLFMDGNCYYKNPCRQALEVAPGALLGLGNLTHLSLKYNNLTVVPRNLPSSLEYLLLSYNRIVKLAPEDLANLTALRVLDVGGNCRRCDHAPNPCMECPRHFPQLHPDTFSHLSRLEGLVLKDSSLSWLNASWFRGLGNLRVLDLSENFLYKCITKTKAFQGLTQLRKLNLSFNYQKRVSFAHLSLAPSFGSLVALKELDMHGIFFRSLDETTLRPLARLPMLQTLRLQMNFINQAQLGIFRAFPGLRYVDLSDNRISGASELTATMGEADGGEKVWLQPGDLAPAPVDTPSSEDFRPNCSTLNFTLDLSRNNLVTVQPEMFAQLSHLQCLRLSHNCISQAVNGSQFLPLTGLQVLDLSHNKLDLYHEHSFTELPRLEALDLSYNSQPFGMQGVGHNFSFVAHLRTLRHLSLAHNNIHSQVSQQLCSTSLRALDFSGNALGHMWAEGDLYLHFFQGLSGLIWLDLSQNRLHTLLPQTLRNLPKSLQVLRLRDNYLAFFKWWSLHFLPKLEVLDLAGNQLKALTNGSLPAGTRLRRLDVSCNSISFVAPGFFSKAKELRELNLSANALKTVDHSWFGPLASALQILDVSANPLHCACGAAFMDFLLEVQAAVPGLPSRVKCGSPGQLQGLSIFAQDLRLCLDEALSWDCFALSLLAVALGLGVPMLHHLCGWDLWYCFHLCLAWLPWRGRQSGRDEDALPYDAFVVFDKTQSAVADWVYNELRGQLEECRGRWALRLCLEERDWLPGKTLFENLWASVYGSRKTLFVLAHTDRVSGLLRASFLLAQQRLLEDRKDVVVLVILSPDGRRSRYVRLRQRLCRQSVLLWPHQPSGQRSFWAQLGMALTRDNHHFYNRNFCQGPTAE
Text: (§1) Human peripheral blood mononuclear cells (PBMCs) consist of lymphocytes, monocytes and dendritic cells that express TLR7, TLR8 and TLR9. These cells respond to TLR7, TLR8 and TLR9 ligand stimulation and produce cytokines and chemokines in vitro and in vivo. Human PBMCs are therefore suitable to be used in a cell-based assay to assess the in vitro potency of a TLR 7, 8, and/or 9 antagonist. The result is expected to be more translatable to the pharmacodynamics response in vivo than cell line-based assays.
(§2) Cryopreserved human PBMCs from healthy donors were thawed and resuspended in RPMI-1640 media with L-glutamine (Corning) supplemented with 10% Fetal Bovine Serum (Hyclone) and 1X Penicillin-Streptomycin (Corning). After counting, the cell density was adjusted to 2 million cells/ml and incubated for 1 hour at 37° C., 5% CO2 for recovery. Following the recovery, the cells were plated by adding 50p per well (100,000 cells) to 384-well cell culture plates (Greiner) containing 250nl of test antagonists in 100% DMSO per well, in a 10 points dose response in quadruplicates. PBMCs were incubated in the presence of test antagonists for one hour at 37° C., 5% CO2 before being stimulated with a TLR7 or TLR9 agonist. GS-986 (Gilead Sciences) was used as the TLR7 agonist at a final concentration of 400 nM. ODN-2216 (InvivoGen) was used as the TLR9 agonist at a final concentration of 3μM. PBMCs were incubated in the presence of the test antagonist and the TLR7 (or TLR9) agonist for an additional 6 hours at 37° C., 5% CO2. At the end of the incubation, the cell culture plates were centrifuged at 500 g for 5 min, and the cell culture supernatant was collected. The level of cytokines (IL-6 and IFNα) in the supernatant was measured by electrochemiluminescence immunoassays (Mesoscale Discovery) following manufacturer's recommended protocols. The level of cytokine measured was plotted against the test antagonist concentration and fitted to a sigmoidal function to determine the EC50, which are shown below in Table 26.

[2] = target: T2, TLR7 (Homo sapiens, UniProt Q9NYK1); assay: Human PBMC cell-based assay, TLR7 agonist GS-986 stimulation, cytokine (IL-6 and IFNα) readout; conditions: human PBMCs, GS-986 400 nM, 6 hours; Table 26; read-out: TLR-7 EC50
T2 construct: lymphocytes, monocytes and dendritic cells that express TLR7, TLR8 and TLR9; endogenous in cells; host or cells: human PBMCs from healthy donors
T2 sequence (Q9NYK1 27-1049): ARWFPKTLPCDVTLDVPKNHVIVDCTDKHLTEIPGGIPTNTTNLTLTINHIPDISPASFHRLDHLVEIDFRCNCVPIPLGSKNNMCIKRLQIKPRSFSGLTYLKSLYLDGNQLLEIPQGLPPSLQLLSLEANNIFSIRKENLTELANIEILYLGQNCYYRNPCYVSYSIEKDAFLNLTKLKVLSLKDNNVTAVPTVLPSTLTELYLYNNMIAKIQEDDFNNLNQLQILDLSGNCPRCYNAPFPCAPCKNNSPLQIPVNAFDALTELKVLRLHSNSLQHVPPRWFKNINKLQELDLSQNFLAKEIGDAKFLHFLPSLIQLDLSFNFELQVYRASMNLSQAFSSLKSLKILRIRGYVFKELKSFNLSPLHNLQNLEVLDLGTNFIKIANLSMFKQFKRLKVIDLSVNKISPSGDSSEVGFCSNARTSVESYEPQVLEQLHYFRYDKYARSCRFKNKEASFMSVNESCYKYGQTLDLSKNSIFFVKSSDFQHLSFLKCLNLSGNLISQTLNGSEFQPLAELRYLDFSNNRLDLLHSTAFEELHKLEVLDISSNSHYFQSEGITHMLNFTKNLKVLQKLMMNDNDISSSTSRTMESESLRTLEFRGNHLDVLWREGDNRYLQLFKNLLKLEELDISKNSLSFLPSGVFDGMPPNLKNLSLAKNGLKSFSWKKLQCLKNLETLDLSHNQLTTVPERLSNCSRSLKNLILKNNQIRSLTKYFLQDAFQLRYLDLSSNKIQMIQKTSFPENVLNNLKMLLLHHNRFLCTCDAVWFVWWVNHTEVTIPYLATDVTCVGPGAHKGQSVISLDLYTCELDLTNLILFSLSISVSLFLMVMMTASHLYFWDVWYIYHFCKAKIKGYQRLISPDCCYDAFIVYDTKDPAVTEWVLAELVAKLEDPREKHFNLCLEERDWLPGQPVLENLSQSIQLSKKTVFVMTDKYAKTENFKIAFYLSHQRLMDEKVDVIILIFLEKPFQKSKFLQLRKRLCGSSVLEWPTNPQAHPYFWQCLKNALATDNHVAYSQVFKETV
Text: as §1, §2

Row | SMILES | EC50 [1] [nM] | EC50 [2] [nM]
1 | Cc1cc(-c2[nH]c3cc(-c4ccc(N5C[C@H]6CC[C@@H](C5)[C@H]6N)nc4)ccc3c2C)cc(C)n1 [Example 27] | 55.2 | 196
2 | Cc1cc(-c2[nH]c3cc(-c4ccc(N5C[C@H]6CC[C@@H](C5)[C@@H]6N)nc4)ccc3c2C)cc(C)n1 [Example 28] | 69.9 | 63
3 | Cc1cc(-c2[nH]c3cc(-c4ccc(N5CC6(CNCCO6)C5)nc4)ccc3c2C)cc(C)n1 [Example 29] | 122 | 31.6
4 | CNCCN(C)c1ccc(-c2ccc3c(C)c(-c4cc(C)nc(C)c4)[nH]c3c2)cn1 [Example 30] | 55.8 | 24.1
5 | Cc1cc(-c2[nH]c3cc(-c4ccc(N5CC[C@@H](N)C5)nc4)ccc3c2C)cc(C)n1 [Example 31] | 13.5 | 8.3
6 | Cc1cc(-c2[nH]c3cc(-c4ccc(N5CC[C@H](N)C5)nc4)ccc3c2C)cc(C)n1 [Example 32] | 37.3 | 17.7
7 | Cc1cc(-c2[nH]c3cc(-c4ccc(N5CC[C@H]6CNC[C@H]65)nc4)ccc3c2C)cc(C)n1 [Example 33] | 79.9 | 51
8 | Cc1cc(-c2[nH]c3cc(-c4ccc(N5CC6CNCC6C5)nc4)ccc3c2C)cc(C)n1 (stereo not drawn) [Example 34] | 83.4 | 17.7
9 | Cc1cc(-c2[nH]c3cc(-c4ccc(N5CCN(C6COC6)CC5)nc4)ccc3c2C)cc(C)n1 [Example 38] | 382 | 273
10 | Cc1cc(-c2[nH]c3cc(-c4ccc(N5CCN(CCO)C(=O)C5)nc4)ccc3c2C)cc(C)n1 [Example 39] | 310 | 26.4
11 | Cc1cc(-c2[nH]c3cc(-c4ccc(N5CCN(C)CC5)nc4)ccc3c2C)cc(C)n1 [Example 41, 2-(2,6-dimethylpyridin-4-yl)-3-methyl-6-(6-(4-methylpiperazin-1-yl)pyridin-3-yl)-1H-indole] | 69.6 | 12.9
12 | Cc1cc(-c2[nH]c3cc(-c4ccc(S(=O)(=O)C5CCNCC5)cc4)ccc3c2C)cc(C)n1 [Example 42] | 106 | 150

Next, values leading:

Row | EC50 [1] [nM] | EC50 [2] [nM] | SMILES
13 | 242 | 121 | Cc1cc(-c2[nH]c3cc(-c4ccc5[nH]cnc5c4)ccc3c2C)cc(C)n1 [Example 44]
14 | 621 | 331 | Cc1cc(-c2[nH]c3cc(-c4cnc5[nH]c(C)nc5c4)ccc3c2C)cc(C)n1 [Example 45]
15 | 1070 | 183 | Cc1cc(-c2[nH]c3cc(-c4cnc5c(c4)ncn5C)ccc3c2C)cc(C)n1 [Example 46]
16 | 400 | 652 | Cc1cc(-c2[nH]c3cc(-c4ccc5cccnc5c4)ccc3c2C)cc(C)n1 [Example 47]
17 | 358 | 549 | CCc1c(-c2cc(C)nc(C)c2)[nH]c2cc(C3CCNCC3)ccc12 [Example 49, 2-(2,6-dimethylpyridin-4-yl)-3-ethyl-6-(piperidin-4-yl)-1H-indole]
18 | 784 | 222 | Cc1cc(-c2[nH]c3cc(C4CCNCC4)ccc3c2C(C)C)cc(C)n1 [Example 50, 2-(2,6-dimethylpyridin-4-yl)-3-isopropyl-6-(piperidin-4-yl)-1H-indole]
19 | 1670 | 35.8 | Cc1c(-c2cc(C)c3ncnn3c2)[nH]c2cc(C3CCNCC3)ccc12 [Example 51]
20 | 1920 | 12 | CCc1c(-c2cc(C)c3ncnn3c2)[nH]c2cc(C3CCNCC3)ccc12 [Example 52]
21 | 69.4 | 1390 | Cc1cc(-c2[nH]c3cc(C4CCNC4)ccc3c2C)cc(C)n1 (stereo not drawn) [Example 54]
22 | 3040 | 374 | COc1cc(-c2ccc3c(C)c(-c4cc(C)nc(C)c4)[nH]c3c2)ccn1 [Example 56, 2-(2,6-dimethylpyridin-4-yl)-6-(2-methoxypyridin-4-yl)-3-methyl-1H-indole]
23 | 306 | 200 | Cc1cc(-c2[nH]c3cc(-c4ccn5ccnc5c4)ccc3c2C)cc(C)n1 [Example 57]
24 | 1130 | 373 | Cc1cc(-c2[nH]c3cc(-c4ccn5ncnc5c4)ccc3c2C)cc(C)n1 [Example 58]
